Calls of active or inactive are those of the source.
How the values were obtained:
SUMO-activating enzyme = SUMO-activating enzyme (Homo sapiens, UniProt Q9UBT2); experiment: blockers of SAE1/SAE2–UBC9 SUMO transfer – biochemical, HTRF, uHTS, primary screen (AID 2006); type: protein-complex assay
[1] = microbe, parasite or virus in culture; type: functional; conditions: Mycobacterium tuberculosis
[2] = Luminescence Cell-Based Dose Retest to Confirm Inhibitors of Cancer Stem Cells. [Related pubchem assays (depositor defined):AID2717, AID2721]; type: functional; conditions: Homo sapiens
[3] = viability of uninfected HEp-2 cells – cell-based, HTS, cytotoxicity control for RSV inhibitor project, dose response (AID 2410); type: functional; conditions: human respiratory syncytial virus
Streptokinase A = biological target: T1, Streptokinase A (Streptococcus pyogenes serotype M1, UniProt P10520); experiment: viability-normalized secreted streptokinase activity reduction – plasminogen activation absorbance, OD405, dose response (AID 1914); type: functional, Streptococcus pyogenes M1 GAS;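 also: secreted streptokinase activity via plasminogen activation per viability signal from cell pellet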
T1 sequence (P10520 whole entry): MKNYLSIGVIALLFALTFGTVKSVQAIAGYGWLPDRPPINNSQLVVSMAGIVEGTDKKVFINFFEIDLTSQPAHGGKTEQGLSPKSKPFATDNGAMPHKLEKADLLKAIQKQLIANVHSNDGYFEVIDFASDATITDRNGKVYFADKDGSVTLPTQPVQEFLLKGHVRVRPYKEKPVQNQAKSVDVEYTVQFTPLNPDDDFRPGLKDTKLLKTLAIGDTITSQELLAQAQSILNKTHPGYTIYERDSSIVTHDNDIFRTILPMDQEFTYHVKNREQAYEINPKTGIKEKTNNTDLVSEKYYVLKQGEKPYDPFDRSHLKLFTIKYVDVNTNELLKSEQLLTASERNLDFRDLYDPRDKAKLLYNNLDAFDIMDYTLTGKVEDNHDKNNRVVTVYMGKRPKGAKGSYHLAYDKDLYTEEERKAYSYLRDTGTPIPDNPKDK

[4] = biological target: T2, Calpain-2 catalytic subunit (Sus scrofa, UniProt P43367); experiment: m-calpain protease blockers, concentration series – biochemical, fluorogenic peptide substrate, dose response (AID 1420); type: functional
T2 sequence (P43367 whole entry): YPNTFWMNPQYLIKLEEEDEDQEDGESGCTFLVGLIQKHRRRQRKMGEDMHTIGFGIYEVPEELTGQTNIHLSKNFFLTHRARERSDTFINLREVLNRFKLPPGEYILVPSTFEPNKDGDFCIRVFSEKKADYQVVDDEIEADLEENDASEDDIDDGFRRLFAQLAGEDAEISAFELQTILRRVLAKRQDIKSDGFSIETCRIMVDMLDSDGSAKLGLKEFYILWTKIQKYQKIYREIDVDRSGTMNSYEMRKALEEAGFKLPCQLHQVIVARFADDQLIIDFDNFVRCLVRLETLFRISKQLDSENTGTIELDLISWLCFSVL

[5] = biological target: T3, Short transient receptor potential channel 4 (Mus musculus, UniProt Q9QUQ5); experiment: block of DAMGO-driven TRPC4 calcium entry – cell-based, HEK293 TRPC4/mu-opioid, Fluo-4 calcium, dose response (AID 434942); type: functional;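 also: potency of inhibitors blocking the TRPC4 calcium response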
T3 sequence (Q9QUQ5 whole entry): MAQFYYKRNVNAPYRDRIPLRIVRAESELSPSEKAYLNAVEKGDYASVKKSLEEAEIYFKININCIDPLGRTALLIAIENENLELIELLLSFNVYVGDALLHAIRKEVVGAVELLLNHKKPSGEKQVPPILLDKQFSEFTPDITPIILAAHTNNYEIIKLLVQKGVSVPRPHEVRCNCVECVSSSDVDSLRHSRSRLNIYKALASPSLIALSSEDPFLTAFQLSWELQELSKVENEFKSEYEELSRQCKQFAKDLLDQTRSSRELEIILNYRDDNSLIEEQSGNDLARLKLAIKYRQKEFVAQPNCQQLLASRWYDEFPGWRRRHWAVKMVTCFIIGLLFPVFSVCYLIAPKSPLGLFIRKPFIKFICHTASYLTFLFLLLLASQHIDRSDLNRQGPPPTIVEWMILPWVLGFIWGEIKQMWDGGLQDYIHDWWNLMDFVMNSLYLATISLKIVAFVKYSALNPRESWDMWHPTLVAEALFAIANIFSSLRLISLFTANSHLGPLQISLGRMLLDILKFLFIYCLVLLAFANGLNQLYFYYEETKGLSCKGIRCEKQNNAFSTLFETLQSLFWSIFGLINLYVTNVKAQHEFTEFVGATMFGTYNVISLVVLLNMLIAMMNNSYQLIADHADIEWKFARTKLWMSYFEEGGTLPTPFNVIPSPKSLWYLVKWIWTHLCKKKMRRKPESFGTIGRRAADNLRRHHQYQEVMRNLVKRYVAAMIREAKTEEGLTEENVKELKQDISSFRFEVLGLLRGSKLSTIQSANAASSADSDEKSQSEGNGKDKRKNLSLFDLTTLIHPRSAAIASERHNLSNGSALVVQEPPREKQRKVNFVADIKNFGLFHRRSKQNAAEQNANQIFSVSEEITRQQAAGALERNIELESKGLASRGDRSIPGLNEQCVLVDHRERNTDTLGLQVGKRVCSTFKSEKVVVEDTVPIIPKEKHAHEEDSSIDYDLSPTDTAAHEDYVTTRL

BJ [6] = experiment: BJ-TERT-LT-ST fibroblast viability loss – cell-based, RAS-independent, luminescence, dose response (AID 1935); type: functional; conditions: Homo sapiens;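 also: BJ fibroblasts immortalized with TERT plus LT and ST oncogenes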
[7] = DRD fibroblast viability loss – cell-based, non-viral oncogenic, luminescence, dose response (AID 1934); type: functional; conditions: Homo sapiens
[8] = biological target: Glucose-6-phosphate 1-dehydrogenase (Homo sapiens, UniProt P11413); experiment: inhibition of Homo sapiens G6PD, dose series – biochemical, fluorescence, selectivity assay for P. falciparum G6PD inhibitor project, dose response (AID 504792); type: functional
BJ [9] = experiment: growth inhibition of engineered Ras-driven BJ cells – cell-based, alamar blue fluorescence, cherrypicked samples, dose response (AID 2631); type: functional; conditions: Homo sapiens;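 also: confirmatory dose-response assay in RAS-dependent BJ fibroblasts engineered with TERT, LT and ST, with cytotoxicity read by fluorescence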
[10] = biological target: T4, Rac GTPase-activating protein 1 (Homo sapiens, UniProt Q9H0H5); experiment: blockers of MgcRacGAP-driven Rac1 GTP hydrolysis – biochemical, ADP Hunter fluorescence, primary and confirmatory, confirmation (AID 624330); type: functional
T4 sequence (Q9H0H5 whole entry): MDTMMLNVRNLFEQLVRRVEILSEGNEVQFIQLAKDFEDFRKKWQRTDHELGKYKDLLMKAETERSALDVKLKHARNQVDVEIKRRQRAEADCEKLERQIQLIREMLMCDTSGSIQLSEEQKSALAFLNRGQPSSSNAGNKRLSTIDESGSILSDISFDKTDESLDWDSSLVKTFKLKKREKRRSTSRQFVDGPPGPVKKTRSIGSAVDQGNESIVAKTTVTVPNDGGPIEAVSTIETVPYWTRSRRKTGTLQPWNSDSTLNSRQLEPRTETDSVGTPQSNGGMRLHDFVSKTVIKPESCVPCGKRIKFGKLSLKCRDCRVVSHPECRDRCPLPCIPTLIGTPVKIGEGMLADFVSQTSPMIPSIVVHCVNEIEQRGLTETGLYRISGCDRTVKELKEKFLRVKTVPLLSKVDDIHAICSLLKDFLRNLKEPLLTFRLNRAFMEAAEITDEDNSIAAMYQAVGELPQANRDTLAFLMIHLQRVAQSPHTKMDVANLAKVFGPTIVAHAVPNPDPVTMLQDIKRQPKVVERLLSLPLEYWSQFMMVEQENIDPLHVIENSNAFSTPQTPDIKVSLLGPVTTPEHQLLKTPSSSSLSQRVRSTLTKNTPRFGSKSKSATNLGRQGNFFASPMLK
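For AC50 in this document: cells exposed to compound for roughly 70 hours or longer before luminescence read.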

SUMO-activating enzyme, sequence (Q9UBE0 whole entry): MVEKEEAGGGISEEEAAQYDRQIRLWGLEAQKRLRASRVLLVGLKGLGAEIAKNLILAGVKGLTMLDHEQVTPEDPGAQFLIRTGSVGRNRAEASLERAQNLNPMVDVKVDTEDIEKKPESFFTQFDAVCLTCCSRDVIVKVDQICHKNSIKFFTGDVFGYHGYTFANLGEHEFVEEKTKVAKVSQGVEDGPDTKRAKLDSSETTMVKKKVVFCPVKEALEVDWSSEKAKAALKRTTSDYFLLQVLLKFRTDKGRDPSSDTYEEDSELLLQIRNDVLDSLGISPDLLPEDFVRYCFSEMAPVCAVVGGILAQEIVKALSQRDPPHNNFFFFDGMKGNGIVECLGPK
SUMO-activating enzyme, sequence (Q9UBT2 whole entry): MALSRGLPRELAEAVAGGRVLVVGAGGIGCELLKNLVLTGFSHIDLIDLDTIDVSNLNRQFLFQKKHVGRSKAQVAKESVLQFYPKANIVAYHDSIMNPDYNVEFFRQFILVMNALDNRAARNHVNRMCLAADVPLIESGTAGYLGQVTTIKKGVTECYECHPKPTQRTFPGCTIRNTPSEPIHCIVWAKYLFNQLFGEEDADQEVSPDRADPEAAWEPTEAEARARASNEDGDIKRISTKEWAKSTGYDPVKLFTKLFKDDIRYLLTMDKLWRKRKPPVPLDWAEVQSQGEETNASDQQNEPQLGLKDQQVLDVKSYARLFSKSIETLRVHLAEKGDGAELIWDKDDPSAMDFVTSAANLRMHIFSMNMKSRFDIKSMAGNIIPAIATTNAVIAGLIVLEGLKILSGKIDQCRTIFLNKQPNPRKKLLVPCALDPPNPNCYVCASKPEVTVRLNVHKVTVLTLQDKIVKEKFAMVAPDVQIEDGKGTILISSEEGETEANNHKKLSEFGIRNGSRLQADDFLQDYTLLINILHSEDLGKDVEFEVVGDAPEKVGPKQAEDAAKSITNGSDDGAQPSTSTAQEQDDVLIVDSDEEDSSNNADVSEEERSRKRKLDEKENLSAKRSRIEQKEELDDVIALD
Glucose-6-phosphate 1-dehydrogenase, sequence (P11413 whole entry): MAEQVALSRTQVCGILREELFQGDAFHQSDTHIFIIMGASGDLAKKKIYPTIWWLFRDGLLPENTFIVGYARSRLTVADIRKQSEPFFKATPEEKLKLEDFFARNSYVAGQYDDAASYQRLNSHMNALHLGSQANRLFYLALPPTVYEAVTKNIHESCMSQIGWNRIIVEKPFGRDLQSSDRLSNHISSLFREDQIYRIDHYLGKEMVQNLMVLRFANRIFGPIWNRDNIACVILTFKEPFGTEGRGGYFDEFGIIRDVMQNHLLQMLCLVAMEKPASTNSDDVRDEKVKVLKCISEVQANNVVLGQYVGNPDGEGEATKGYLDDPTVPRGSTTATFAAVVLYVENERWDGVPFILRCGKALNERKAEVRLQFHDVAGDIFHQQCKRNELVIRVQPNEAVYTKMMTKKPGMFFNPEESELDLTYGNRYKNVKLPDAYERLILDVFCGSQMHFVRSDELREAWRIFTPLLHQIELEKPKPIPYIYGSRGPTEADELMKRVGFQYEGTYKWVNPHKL

For COc1ccc(/C=N/Nc2cc(N3CCCC3)nc(N3CCCC3)n2)cc1, the IC50 (SUMO-activating enzyme) was 2.31 µM (active), the CC50 [1] was 20.3 µM (active) and the AC50 [2] was 3.71 µM (active).

With Cc1cccc(C)c1-n1cccc1/C=C1\SC(=S)N(c2cccc(C(=O)O)c2)C1=O the CC50 [3] was 12.8 µM (active), the EC50 (Streptokinase A) was 3.8 µM (active) and the IC50 [4] was 7.27 µM (not active). The EC50 [5] was 3.35 µM (active).

For COc1ccc(S(=O)(=O)/N=C2\C=C(Nc3ccc(O)cc3)C(=O)c3ccccc32)cc1, the EC50 (BJ [6]) was 2.93 µM (inconclusive), the EC50 [7] was 2.89 µM (active) and the IC50 [8] was > 80 µM (inactive). The EC50 (BJ [9]) was 0.507 µM (inconclusive) and the IC50 [10] was 50.7 µM (active).
